Biological target: CCR2 (Homo sapiens (Human), UniProt P41597)
Experiment: MCP-1 Receptor Binding Assay in THP-1 Cells;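 note: THP-1 is a human monocytic cell line, and nonspecific binding was defined with 1 µM unlabeled MCP-1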
Details: 0.5 nM 125I labeled MCP-1, 2 hours at 30° C., read-out: Inhibition of MCP-1 Binding IC50 MCP1B

CCR2, sequence (P41597 whole entry): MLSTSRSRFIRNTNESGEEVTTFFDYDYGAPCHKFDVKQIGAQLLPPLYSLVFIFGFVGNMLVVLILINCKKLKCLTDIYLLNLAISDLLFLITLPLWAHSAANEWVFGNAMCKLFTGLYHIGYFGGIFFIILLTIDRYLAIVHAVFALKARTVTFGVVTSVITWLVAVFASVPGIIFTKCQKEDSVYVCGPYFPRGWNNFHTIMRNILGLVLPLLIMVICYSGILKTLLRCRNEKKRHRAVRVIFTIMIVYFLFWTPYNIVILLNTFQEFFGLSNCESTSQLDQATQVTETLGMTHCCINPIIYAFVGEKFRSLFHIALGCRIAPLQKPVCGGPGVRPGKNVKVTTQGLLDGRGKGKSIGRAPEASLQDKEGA

Row | IC50 [nM] | SMILES
1 | 8 | O=C(CNc1ncnc2ccc(C(F)(F)F)cc12)NC1CN(C2CCC([C@@H](O)C3CC3)CC2)C1 (single isomer, unassigned; (-)) [(−) 6]
2 | 17 | O=C(CNc1ccnc2ccc(C(F)(F)F)cc12)NC1CN([C@H]2CC[C@@](O)(c3nccs3)CC2)C1 [Example 27]
3 | 64 | O=C(CNc1ncnc2ccc(C(F)(F)F)cc12)NC1CN([C@H]2CC[C@@H](C3CNC(=O)O3)CC2)C1 (stereo partly drawn) [Example 22, N-(1-((1S,4s)-4-(2-oxooxazolidin-5-yl)cyclohexyl)azetidin-3-yl)-2-((6-(trifluoromethyl)quinazolin-4-yl)amino)acetamide]
4 | 390 | COc1ccc(CNC(=O)C2CCC(N3CC(NC(=O)CNc4ncnc5ccc(C(F)(F)F)cc45)C3)CC2)c(OC)c1 (stereo not drawn) [Example 129, N-(2,4-dimethoxybenzyl)-4-(3-(2-((6-(trifluoromethyl)quinazolin-4-yl)amino)acetamido)azetidin-1-yl)cyclohexanecarboxamide]
5 | 530 | CCC(O)[C@H]1CC[C@@H](N2CC(NC(=O)CNc3cnnc4ccc(C(F)(F)F)cc34)C2)CC1 (stereo partly drawn) [Example 152, N-(1-(4-(1-hydroxypropyl)cyclohexyl)azetidin-3-yl)-2-(6-(trifluoromethyl)cinnolin-4-ylamino)acetamide]
6 | 714 | CN(C)CC(O)[C@H]1CC[C@@H](N2CC(NC(=O)CNc3ncnc4ccc(C(F)(F)F)cc34)C2)CC1 (stereo partly drawn) [Example 23, N-(1-((1S,4s)-4-(2-(dimethylamino)-1-hydroxyethyl)cyclohexyl)azetidin-3-yl)-2-((6-(trifluoromethyl)quinazolin-4-yl)amino)acetamide]
7 | 40 | CCC(N)[C@H]1CC[C@@H](N2CC(NC(=O)CNc3ncnc4ccc(C(F)(F)F)cc34)C2)CC1 (stereo partly drawn) [Example 136, N-(1-((1R,4s)-4-((S)-1-aminopropyl)cyclohexyl)azetidin-3-yl)-2-((6-(trifluoromethyl)quinazolin-4-yl)amino)acetamide]
8 | 390 | CCC(=O)N(C)[C@H]1CC[C@@H](N2CC(NC(=O)CNc3ncnc4ccc(C(F)(F)F)cc34)C2)CC1 [Example 45, N-Methyl-N-((1s,4s)-4-(3-(2-((6-(trifluoromethyl)quinazolin-4-yl)amino)acetamido)azetidin-1-yl)cyclohexyl)propionamide]
9 | 550 | O=C(CNc1ncnc2ccc(C(F)(F)F)cc12)NC1CN([C@H]2CC[C@@H](N3CCCCC3=O)CC2)C1 [Example 56, N-(1-((1s,4s)-4-(2-oxopiperidin-1-yl)cyclohexyl)azetidin-3-yl)-2-((6-(trifluoromethyl)quinazolin-4-yl)amino)acetamide]
10 | 1450 | CCC(NS(C)(=O)=O)[C@H]1CC[C@@H](N2CC(NC(=O)CNc3ncnc4ccc(C(F)(F)F)cc34)C2)CC1 (stereo partly drawn) [Example 139, N-(1-((1R,4s)-4-((S)-1-(methylsulfonamido)propyl)cyclohexyl)azetidin-3-yl)-2-((6-(trifluoromethyl)quinazolin-4-yl)amino)acetamide]
11 | 670 | CC(=O)N[C@H]1CC[C@@H](N2CC(NC(=O)CNc3ncnc4ccc(C(F)(F)F)cc34)C2)CC1 [Example 41, N-(1-((1s,4s)-4-acetamidocyclohexyl)azetidin-3-yl)-2-((6-(trifluoromethyl)quinazolin-4-yl)amino)acetamide]
12 | 130 | CNc1cnccc1C1CCC(N2CC(NC(=O)CNc3ncnc4ccc(C(F)(F)F)cc34)C2)CC1 (stereo not drawn) [Example 74, N-(1-(4-(3-(methylamino)pyridin-4-yl)cyclohexyl)azetidin-3-yl)-2-((6-(trifluoromethyl)quinazolin-4-yl)amino)acetamide]
13 | 68 | O=C(CNc1ncnc2ccc(C(F)(F)F)cc12)NC1CN([C@H]2CC[C@@H](O)CC2)C1 [Example 110, N-(1-((1s,4s)-4-hydroxycyclohexyl)azetidin-3-yl)-2-((6-(trifluoromethyl)quinazolin-4-yl)amino)acetamide]
14 | 2980 | CCC(NC(=O)C(F)(F)F)[C@H]1CC[C@@H](N2CC(NC(=O)CNc3ncnc4ccc(C(F)(F)F)cc34)C2)CC1 (stereo partly drawn) [Example 135, 2,2,2-trifluoro-N—((S)-1-((1s,4R)-4-(3-(2-((6-(trifluoromethyl)quinazolin-4-yl)amino)acetamido)azetidin-1-yl)cyclohexyl)propyl)acetamide]
15 | 5040 | CCC([C@H]1CC[C@@H](N2CC(NC(=O)CNc3ncnc4ccc(C(F)(F)F)cc34)C2)CC1)N(C)C (stereo partly drawn) [Example 137, N-(1-((1S,4s)-4-((R)-1-(dimethylamino)propyl)cyclohexyl)azetidin-3-yl)-2-(6-(trifluoromethyl)quinazolin-4-ylamino)acetamide]
16 | 300 | CCCN(C(=O)OCc1ccccc1)[C@H]1CC[C@@H](N2CC(NC(=O)CNc3ncnc4ccc(C(F)(F)F)cc34)C2)CC1 [Example 48, benzyl propyl((1s,4s)-4-(3-(2-((6-(trifluoromethyl)quinazolin-4-yl)amino)acetamido)azetidin-1-yl)cyclohexyl)carbamate]
17 | 130 | O=C(CNc1cc(C(F)(F)F)nc2ccc(C(F)(F)F)cc12)NC1CN([C@H]2CC[C@@H](n3ccccc3=O)CC2)C1 [Example 59, 2-((2,6-bis(trifluoromethyl)quinolin-4-yl)amino)-N-(1-((1s,4s)-4-(2-oxopyridin-1(2H)-yl)cyclohexyl)azetidin-3-yl)acetamide]
18 | 72 | CCC(O)[C@H]1CC[C@@H](N2CC(NC(=O)CNc3nccc4ccc(C(F)(F)C(F)(F)F)cc34)C2)CC1 (stereo partly drawn) [Example 170, N-(1-((1R,4s)-4-(1-hydroxypropyl)cyclohexyl)azetidin-3-yl)-2-((7-(perfluoroethyl)isoquinolin-1-yl)amino)acetamide]
19 | 15 | O=C(CNc1ncnc2ccc(C(F)(F)F)cc12)NC1CN([C@H]2CC[C@@H](n3ccccc3=O)CC2)C1 [Example 55, N-(1-((1s,4s)-4-(2-oxopyridin-1-(2H)-yl)cyclohexyl)azetidin-3-yl)-2-((6-(trifluoromethyl)quinazolin-4-yl)amino)acetamide]
20 | 810 | CCN(C(C)=O)[C@H]1CC[C@@H](N2CC(NC(=O)CNc3ncnc4ccc(C(F)(F)F)cc34)C2)CC1 [Example 50]
21 | 690 | CCCC(O)(CCC)[C@H]1CC[C@@H](N2CC(NC(=O)CNc3ncnc4ccc(C(F)(F)F)cc34)C2)CC1 [Example 32, N-(1-((1s,4s)-4-(4-hydroxyheptan-4-yl)cyclohexyl)azetidin-3-yl)-2-((6-(trifluoromethyl)quinazolin-4-yl)amino)acetamide]
22 | 10 | CC(C)[C@H](O)C1CCC(N2CC(NC(=O)CNc3ncnc4ccc(C(F)(F)F)cc34)C2)CC1 (single isomer, unassigned; (-)) [(−) 8]
23 | 235 | CC(C)[C@]1(O)CC[C@H](N2CC(NC(=O)CNc3ncnc4ccc(C(F)(F)F)cc34)C2)CC1 [Example 37, N-(1-((1r,4r)-4-hydroxy-4-isopropylcyclohexyl)azetidin-3-yl)-2-((6-(trifluoromethyl)quinazolin-4-yl)amino)acetamide]

Row | SMILES | IC50 [nM]
24 | O=C(CNc1ncnc2ccc(C(F)(F)F)cc12)NC1CN([C@H]2CC[C@@H](C(O)C(F)(F)C(F)(F)C(F)(F)F)CC2)C1 (stereo partly drawn) [Example 35, N-(1-((1R,4s)-4-(2,2,3,3,4,4,4-heptafluoro-1-hydroxybutyl)cyclohexyl)azetidin-3-yl)-2-((6-(trifluoromethyl)quinazolin-4-yl)amino)acetamide] | 270
